Measured values as given in the NIST ThermoML archive (doi:10.1016/j.jct.2008.01.003).
Numbers after ± are expanded uncertainties.

Assay: mn = molality of the nth substance listed, in mol/kg
Conditions: 101 kPa, Liquid

CCCCCCn1cc[n+](C)c1.[Br-] [3-hexyl-1-methyl-1H-imidazolium bromide] + O
Conditions | mass density, 283.15 K [kg/m3] | mass density, 288.15 K [kg/m3] | mass density, 293.15 K [kg/m3] | speed of sound, 283.15 K [m/s] | speed of sound, 288.15 K [m/s] | speed of sound, 293.15 K [m/s]
m1 = 0.0042 | 999.919 ± 0.48 | 999.312 ± 0.49 | 998.411 ± 0.49 | 1448.7 ± 2.9 | 1467 ± 2.9 | 1483.2 ± 2.9
m1 = 0.0048 | 999.941 ± 0.48 | 999.334 ± 0.49 | 998.432 ± 0.49 | 1448.8 ± 2.9 | 1467.1 ± 2.9 | 1483.2 ± 2.9
m1 = 0.0067 | 1000.03 ± 0.48 | 999.423 ± 0.49 | 998.518 ± 0.49 | 1449.2 ± 2.9 | 1467.4 ± 2.9 | 1483.5 ± 2.9
m1 = 0.0081 | 1000.1 ± 0.49 | 999.485 ± 0.49 | 998.579 ± 0.49 | 1449.3 ± 2.9 | 1467.4 ± 2.9 | 1483.6 ± 2.9
m1 = 0.0139 | 1000.38 ± 0.49 | 999.762 ± 0.49 | 998.85 ± 0.49 | 1450.3 ± 2.9 | 1468.4 ± 2.9 | 1484.5 ± 2.9
m1 = 0.0295 | 1001.15 ± 0.49 | 1000.52 ± 0.49 | 999.592 ± 0.49 | 1452.9 ± 2.9 | 1470.8 ± 2.9 | 1486.7 ± 2.9
m1 = 0.0369 | 1001.52 ± 0.49 | 1000.88 ± 0.49 | 999.946 ± 0.49 | 1453.3 ± 2.9 | 1471.1 ± 2.9 | 1486.8 ± 2.9
m1 = 0.0487 | 1002.1 ± 0.5 | 1001.45 ± 0.49 | 1000.5 ± 0.49 | 1455.3 ± 2.9 | 1473 ± 2.9 | 1488.5 ± 2.9
m1 = 0.064 | 1002.84 ± 0.5 | 1002.17 ± 0.5 | 1001.21 ± 0.49 | 1457.9 ± 2.9 | 1475.3 ± 2.9 | 1490.7 ± 2.9
m1 = 0.073 | 1003.27 ± 0.51 | 1002.59 ± 0.5 | 1001.62 ± 0.5 | 1459.4 ± 2.9 | 1476.6 ± 2.9 | 1491.9 ± 2.9
m1 = 0.094 | 1004.29 ± 0.51 | 1003.59 ± 0.51 | 1002.6 ± 0.5 | 1462.8 ± 2.9 | 1479.8 ± 2.9 | 1494.8 ± 2.9
m1 = 0.1183 | 1005.45 ± 0.52 | 1004.72 ± 0.52 | 1003.71 ± 0.51 | 1466.9 ± 2.9 | 1483.5 ± 2.9 | 1498.2 ± 3
m1 = 0.1423 | 1006.6 ± 0.53 | 1005.85 ± 0.52 | 1004.81 ± 0.52 | 1470.9 ± 2.9 | 1487.1 ± 2.9 | 1501.4 ± 3
m1 = 0.1639 | 1007.6 ± 0.54 | 1006.82 ± 0.53 | – | 1474 ± 2.9 | 1490 ± 2.9 | –
m1 = 0.2206 | 1010.25 ± 0.55 | 1009.42 ± 0.55 | – | 1482.7 ± 2.9 | 1497.9 ± 3 | –
m1 = 0.2581 | 1011.96 ± 0.57 | 1011.09 ± 0.56 | – | 1488.1 ± 2.9 | 1502.7 ± 3 | –
m1 = 0.3034 | 1014.04 ± 0.58 | 1013.11 ± 0.57 | – | 1494.6 ± 3 | 1508.7 ± 3 | –
m1 = 0.3543 | 1016.3 ± 0.6 | 1015.32 ± 0.59 | – | 1501.6 ± 3 | 1515 ± 3 | –
m1 = 0.3874 | 1017.82 ± 0.61 | 1016.8 ± 0.6 | – | 1506.1 ± 3 | 1519.1 ± 3 | –
m1 = 0.4492 | 1020.54 ± 0.63 | 1019.46 ± 0.62 | – | 1513.7 ± 3 | 1525.9 ± 3 | –
m1 = 0.6269 | 1028.05 ± 0.69 | 1026.78 ± 0.68 | – | 1535.2 ± 3 | 1545.3 ± 3 | –
m1 = 0.8614 | 1037.26 ± 0.76 | 1035.74 ± 0.75 | – | 1557.7 ± 3.1 | 1565.1 ± 3.1 | –
m1 = 1.001 | 1042.28 ± 0.8 | 1040.64 ± 0.79 | – | 1568.5 ± 3.1 | 1574.6 ± 3.1 | –
m1 = 1.321 | 1053.01 ± 0.89 | 1051.1 ± 0.88 | – | 1586.3 ± 3.1 | 1590.3 ± 3.1 | –
m1 = 1.739 | 1065.23 ± 1 | 1063.06 ± 0.99 | – | 1600 ± 3.2 | 1602.5 ± 3.2 | –
m1 = 2.087 | 1074.16 ± 1.1 | 1071.82 ± 1.1 | – | 1607.4 ± 3.2 | 1608.9 ± 3.2 | –
